Source: ChEMBL document CHEMBL5532744, “2-Aminopyridines as Potent and Selective Nav1.8 Inhibitors Exhibiting Efficacy in a Nonhuman Primate Pain Model” (ACS Med Chem Lett, 2024)
≈ marks a conversion by molar mass, not a printed value.

Legend:
[1] = biological target: Sodium channel protein type 10 subunit alpha (Homo sapiens, UniProt Q9Y5Y9); assay: Inhibition of recombinant human Nav1.8 expressed in HEK293 cells by whole cell patch clamp method; assay type: cell-based
[2] = Unbound clearance in rat at 0.05 mg/kg, iv administered as cassette dose; assay type: ADME, organism-based; settings: in vivo
[3] = Half-life in rat plasma at 0.05 mg/kg, iv administered as cassette dose; assay type: ADME, organism-based
[4] = Solubility of the compound at pH 7; assay type: physicochemical; settings: buffer
[5] = biological target: Sodium channel protein type 5 subunit alpha (Homo sapiens, UniProt Q14524); assay: Inhibition of Nav1.5 (unknown origin)
[6] = biological target: Sodium channel protein type 8 subunit alpha (Homo sapiens, UniProt Q9UQD0); assay: Inhibition of Nav1.6 (unknown origin)
[7] = biological target: Sodium channel protein type 10 subunit alpha (Rattus norvegicus, UniProt Q62968); assay: Inhibition of rat neuronal Nav1.8 by patch clamp electrophysiology
[8] = biological target: Sodium channel protein type 9 subunit alpha (Homo sapiens, UniProt Q15858); assay: Inhibition of Nav1.7 (unknown origin)
[9] = biological target: Sodium channel protein type 2 subunit alpha (Homo sapiens, UniProt Q99250); assay: Inhibition of Nav1.2 (unknown origin)
[10] = biological target: Voltage-gated inwardly rectifying potassium channel KCNH2 (Homo sapiens, UniProt Q12809); assay: Inhibition of hERG; assay type: toxicity
[11] = Apparent permeability of compound; assay type: ADME; settings: not told
[12] = Clearance in rat at 2 mg/kg, iv; assay type: ADME, organism-based; settings: in vivo
[13] = Unbound clearance in rat at 10 mg/kg, po; assay type: ADME, organism-based; settings: in vivo
[14] = Volume of distribution in rat at 2 mg/kg, iv; assay type: ADME, organism-based; settings: in vivo
[15] = Unbound volume of distribution in rat at 10 mg/kg, po; assay type: ADME, organism-based; settings: in vivo
[16] = Half life in rat at 10 mg/kg, po or 2 mg/kg, iv; assay type: ADME, organism-based; settings: in vivo
[17] = Tmax in rat at 10 mg/kg, po or 2 mg/kg, iv; assay type: ADME, organism-based; settings: in vivo
[18] = Bioavailability in rat at 10 mg/kg, po or 2 mg/kg, iv; assay type: ADME, organism-based; settings: in vivo
[19] = Clearance in dog at 1 mg/kg, iv; assay type: ADME, organism-based, Canis lupus familiaris; settings: in vivo
[20] = Unbound clearance in dog at 2 mg/kg, po; assay type: ADME, organism-based, Canis lupus familiaris; settings: in vivo
[21] = Volume of distribution in dog at 1 mg/kg, iv; assay type: ADME, organism-based, Canis lupus familiaris; settings: in vivo
[22] = Unbound volume of distribution in dog at 2 mg/kg, po; assay type: ADME, organism-based, Canis lupus familiaris; settings: in vivo
[23] = Half life in dog at 2 mg/kg, po or 1 mg/kg, iv; assay type: ADME, organism-based, Canis lupus familiaris; settings: in vivo
[24] = Tmax in dog at 2 mg/kg, po or 1 mg/kg, iv; assay type: ADME, organism-based, Canis lupus familiaris; settings: in vivo
[25] = Bioavailability in dog at 2 mg/kg, po or 1 mg/kg, iv; assay type: ADME, organism-based, Canis lupus familiaris; settings: in vivo
[26] = Clearance in rhesus monkey at 1 mg/kg, iv; assay type: ADME, organism-based, Macaca mulatta; settings: in vivo
[27] = Unbound clearance in rhesus monkey at 2 mg/kg, po; assay type: ADME, organism-based, Macaca mulatta; settings: in vivo
[28] = Volume of distribution in rhesus monkey at 1 mg/kg, iv; assay type: ADME, organism-based, Macaca mulatta; settings: in vivo
[29] = Unbound volume of distribution in rhesus monkey at 2 mg/kg, po; assay type: ADME, organism-based, Macaca mulatta; settings: in vivo
[30] = Half life in rhesus monkey at 2 mg/kg, po or 1 mg/kg, iv; assay type: ADME, organism-based, Macaca mulatta; settings: in vivo
[31] = Tmax in rhesus monkey at 2 mg/kg, po or 1 mg/kg, iv; assay type: ADME, organism-based, Macaca mulatta; settings: in vivo
[32] = Bioavailability in rhesus monkey at 2 mg/kg, po or 1 mg/kg, iv; assay type: ADME, organism-based, Macaca mulatta; settings: in vivo
[33] = Drug concentration in rhesus monkey plasma at 2 mg/kg, po; assay type: ADME, organism-based, Macaca mulatta; settings: in vivo
[34] = Drug concentration in rhesus monkey plasma at 6 mg/kg, po; assay type: ADME, organism-based, Macaca mulatta; settings: in vivo
[35] = Drug concentration in rhesus monkey plasma at 18 mg/kg, po; assay type: ADME, organism-based, Macaca mulatta; settings: in vivo
[36] = Unbound drug concentration in rhesus monkey plasma at 2 mg/kg, po; assay type: ADME, organism-based, Macaca mulatta; settings: in vivo
[37] = Unbound drug concentration in rhesus monkey plasma at 6 mg/kg, po; assay type: ADME, organism-based, Macaca mulatta; settings: in vivo
[38] = Unbound drug concentration in rhesus monkey plasma at 18 mg/kg, po; assay type: ADME, organism-based, Macaca mulatta; settings: in vivo
[39] = biological target: Voltage-dependent L-type calcium channel subunit alpha-1C (Homo sapiens, UniProt Q13936); assay: Inhibition of Cav1.2 (unknown origin)

Chain of Sodium channel protein type 8 subunit alpha (Q9UQD0 whole entry): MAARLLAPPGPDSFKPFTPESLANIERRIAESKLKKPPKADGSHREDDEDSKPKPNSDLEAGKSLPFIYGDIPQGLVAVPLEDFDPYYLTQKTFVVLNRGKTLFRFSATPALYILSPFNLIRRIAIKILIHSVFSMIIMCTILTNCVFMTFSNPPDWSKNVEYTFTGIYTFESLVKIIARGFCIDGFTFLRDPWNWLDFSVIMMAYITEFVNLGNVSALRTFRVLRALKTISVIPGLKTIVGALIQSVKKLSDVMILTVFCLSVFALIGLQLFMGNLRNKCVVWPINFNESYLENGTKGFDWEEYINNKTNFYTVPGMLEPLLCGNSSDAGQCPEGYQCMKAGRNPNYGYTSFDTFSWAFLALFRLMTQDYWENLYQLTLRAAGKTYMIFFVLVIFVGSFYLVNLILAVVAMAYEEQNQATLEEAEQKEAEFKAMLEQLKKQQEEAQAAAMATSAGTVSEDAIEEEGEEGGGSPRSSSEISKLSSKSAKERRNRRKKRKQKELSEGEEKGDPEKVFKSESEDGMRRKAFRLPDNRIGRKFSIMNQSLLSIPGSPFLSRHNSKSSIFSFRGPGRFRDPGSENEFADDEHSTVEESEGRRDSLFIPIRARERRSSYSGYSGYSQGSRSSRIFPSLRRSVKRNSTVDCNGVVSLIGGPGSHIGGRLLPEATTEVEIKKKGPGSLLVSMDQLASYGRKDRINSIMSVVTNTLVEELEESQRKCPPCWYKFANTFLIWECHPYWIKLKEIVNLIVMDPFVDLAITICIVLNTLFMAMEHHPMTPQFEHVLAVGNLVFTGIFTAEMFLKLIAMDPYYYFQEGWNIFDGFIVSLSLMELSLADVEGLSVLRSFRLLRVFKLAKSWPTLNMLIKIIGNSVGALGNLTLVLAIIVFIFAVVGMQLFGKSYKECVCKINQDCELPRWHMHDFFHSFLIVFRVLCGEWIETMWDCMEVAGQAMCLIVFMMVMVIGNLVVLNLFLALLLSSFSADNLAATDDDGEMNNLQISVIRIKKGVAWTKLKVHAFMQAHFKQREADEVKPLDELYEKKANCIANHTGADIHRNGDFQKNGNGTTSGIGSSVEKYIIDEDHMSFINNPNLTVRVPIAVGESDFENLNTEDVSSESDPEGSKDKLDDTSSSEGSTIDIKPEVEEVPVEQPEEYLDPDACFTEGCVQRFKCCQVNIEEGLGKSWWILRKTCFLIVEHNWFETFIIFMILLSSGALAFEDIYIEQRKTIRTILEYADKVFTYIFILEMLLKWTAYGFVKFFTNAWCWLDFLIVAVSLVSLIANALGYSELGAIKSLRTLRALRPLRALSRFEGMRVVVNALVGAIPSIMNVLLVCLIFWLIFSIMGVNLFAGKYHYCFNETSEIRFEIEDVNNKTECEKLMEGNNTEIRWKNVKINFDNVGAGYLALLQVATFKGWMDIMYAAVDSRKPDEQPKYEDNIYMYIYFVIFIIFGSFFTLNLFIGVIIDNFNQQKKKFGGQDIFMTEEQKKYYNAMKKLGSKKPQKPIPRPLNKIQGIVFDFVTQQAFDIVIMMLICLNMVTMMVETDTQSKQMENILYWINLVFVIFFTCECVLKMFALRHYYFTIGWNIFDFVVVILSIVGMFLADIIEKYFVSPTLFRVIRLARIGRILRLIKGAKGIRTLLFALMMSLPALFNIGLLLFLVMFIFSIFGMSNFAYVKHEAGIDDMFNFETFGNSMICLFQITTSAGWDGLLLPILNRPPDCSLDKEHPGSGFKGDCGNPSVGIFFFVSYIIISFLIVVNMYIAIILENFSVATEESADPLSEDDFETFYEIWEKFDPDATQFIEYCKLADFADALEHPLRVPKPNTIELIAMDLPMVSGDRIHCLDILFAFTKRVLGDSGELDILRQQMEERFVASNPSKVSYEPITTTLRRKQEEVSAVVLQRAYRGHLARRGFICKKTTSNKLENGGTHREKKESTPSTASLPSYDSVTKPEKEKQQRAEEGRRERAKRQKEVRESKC
Chain of Sodium channel protein type 10 subunit alpha (Homo sapiens, UniProt Q9Y5Y9) (Q9Y5Y9 whole entry): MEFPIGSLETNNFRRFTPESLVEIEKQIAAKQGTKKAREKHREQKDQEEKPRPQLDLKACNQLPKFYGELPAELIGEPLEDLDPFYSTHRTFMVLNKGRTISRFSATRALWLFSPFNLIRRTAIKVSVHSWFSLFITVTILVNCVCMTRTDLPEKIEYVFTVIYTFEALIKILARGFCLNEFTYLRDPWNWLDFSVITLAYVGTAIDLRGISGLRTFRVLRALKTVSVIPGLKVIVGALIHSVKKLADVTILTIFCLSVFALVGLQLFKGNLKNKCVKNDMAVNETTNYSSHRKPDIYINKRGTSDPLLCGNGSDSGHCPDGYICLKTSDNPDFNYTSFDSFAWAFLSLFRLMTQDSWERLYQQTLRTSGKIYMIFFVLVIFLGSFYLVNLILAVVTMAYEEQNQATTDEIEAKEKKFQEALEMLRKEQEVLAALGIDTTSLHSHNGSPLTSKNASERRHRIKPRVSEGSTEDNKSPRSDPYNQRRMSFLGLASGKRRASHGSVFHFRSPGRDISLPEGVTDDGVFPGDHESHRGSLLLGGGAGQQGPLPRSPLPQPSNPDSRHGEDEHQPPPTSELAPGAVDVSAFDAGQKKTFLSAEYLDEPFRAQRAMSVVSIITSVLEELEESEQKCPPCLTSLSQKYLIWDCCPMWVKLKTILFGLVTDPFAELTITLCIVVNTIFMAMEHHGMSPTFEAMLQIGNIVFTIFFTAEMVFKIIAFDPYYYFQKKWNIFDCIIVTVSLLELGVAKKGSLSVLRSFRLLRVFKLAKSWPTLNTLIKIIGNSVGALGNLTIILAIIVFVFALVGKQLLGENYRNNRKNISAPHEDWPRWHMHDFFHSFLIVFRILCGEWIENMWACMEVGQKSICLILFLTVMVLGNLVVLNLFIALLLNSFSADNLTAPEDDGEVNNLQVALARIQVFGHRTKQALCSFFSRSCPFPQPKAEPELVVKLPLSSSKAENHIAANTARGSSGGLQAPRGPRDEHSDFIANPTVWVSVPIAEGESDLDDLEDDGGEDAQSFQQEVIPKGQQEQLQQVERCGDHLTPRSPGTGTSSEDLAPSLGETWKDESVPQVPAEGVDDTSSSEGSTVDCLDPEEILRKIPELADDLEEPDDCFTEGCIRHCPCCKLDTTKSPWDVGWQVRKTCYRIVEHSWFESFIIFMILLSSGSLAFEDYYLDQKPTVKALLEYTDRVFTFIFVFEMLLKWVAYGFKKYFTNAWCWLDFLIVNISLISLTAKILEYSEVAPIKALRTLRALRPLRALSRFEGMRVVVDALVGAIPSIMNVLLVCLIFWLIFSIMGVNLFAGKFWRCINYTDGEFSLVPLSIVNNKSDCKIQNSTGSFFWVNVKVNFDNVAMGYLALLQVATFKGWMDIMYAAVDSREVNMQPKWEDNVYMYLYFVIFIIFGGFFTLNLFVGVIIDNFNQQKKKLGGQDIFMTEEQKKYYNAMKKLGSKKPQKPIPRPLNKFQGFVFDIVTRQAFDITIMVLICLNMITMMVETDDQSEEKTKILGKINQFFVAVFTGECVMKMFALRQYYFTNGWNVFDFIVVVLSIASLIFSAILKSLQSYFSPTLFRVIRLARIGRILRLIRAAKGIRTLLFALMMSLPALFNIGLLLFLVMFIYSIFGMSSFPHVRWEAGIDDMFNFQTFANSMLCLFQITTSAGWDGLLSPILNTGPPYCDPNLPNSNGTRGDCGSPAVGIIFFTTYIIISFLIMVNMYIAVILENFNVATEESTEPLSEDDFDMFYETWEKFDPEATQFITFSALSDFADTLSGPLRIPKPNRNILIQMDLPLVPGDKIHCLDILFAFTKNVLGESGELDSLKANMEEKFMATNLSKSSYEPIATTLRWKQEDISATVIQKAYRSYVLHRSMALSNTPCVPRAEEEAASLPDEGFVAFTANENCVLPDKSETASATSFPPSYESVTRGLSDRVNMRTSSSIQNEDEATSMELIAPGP
Chain of Voltage-gated inwardly rectifying potassium channel KCNH2 (Q12809 whole entry): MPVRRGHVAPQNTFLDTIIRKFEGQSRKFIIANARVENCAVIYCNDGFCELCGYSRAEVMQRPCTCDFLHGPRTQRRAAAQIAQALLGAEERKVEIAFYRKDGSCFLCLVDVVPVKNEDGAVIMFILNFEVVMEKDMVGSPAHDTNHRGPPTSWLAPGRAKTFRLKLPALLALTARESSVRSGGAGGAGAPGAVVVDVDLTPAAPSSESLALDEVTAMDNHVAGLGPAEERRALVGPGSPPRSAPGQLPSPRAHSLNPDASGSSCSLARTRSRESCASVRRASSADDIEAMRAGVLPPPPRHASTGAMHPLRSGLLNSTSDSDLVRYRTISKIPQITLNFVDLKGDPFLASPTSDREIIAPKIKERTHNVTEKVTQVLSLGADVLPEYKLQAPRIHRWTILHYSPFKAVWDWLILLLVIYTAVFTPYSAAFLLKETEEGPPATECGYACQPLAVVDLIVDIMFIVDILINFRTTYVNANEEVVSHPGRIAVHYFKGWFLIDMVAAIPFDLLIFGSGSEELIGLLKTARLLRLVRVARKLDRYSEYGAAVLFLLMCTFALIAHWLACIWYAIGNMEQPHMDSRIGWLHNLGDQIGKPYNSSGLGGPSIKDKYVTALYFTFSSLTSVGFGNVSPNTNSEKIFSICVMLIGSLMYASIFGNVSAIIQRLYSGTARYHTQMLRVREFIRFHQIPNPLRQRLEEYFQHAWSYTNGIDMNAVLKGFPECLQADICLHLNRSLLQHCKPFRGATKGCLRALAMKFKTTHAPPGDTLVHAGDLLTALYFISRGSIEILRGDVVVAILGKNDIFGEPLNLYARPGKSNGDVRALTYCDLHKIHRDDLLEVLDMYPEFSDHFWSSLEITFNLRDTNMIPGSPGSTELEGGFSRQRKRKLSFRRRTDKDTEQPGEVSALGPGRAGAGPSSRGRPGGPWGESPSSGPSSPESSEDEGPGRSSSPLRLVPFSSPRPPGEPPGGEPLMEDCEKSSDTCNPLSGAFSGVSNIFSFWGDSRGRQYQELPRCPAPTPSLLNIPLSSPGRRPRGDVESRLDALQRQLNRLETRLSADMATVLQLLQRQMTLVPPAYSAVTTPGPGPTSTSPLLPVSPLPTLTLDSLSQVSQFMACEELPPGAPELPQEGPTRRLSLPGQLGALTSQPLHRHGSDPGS

SMILES: NS(=O)(=O)c1cccc(NC(=O)c2cc(C(F)(F)F)cnc2N2CCCCC2)c1
- EC50 [1]: 220 nM
- CL free [2]: 370 mL/min/kg
- half-life [3]: 1.5 h
- solubility [4]: 120 µM (≈ 51.4 µg/mL)

SMILES: NS(=O)(=O)c1cccc(NC(=O)c2cc(C(F)(F)F)cnc2N2CCCC(F)(F)C2)c1
- EC50 [1]: 240 nM
- CL free [2]: 210 mL/min/kg
- half-life [3]: 1.1 h
- solubility [4]: 160 µM (≈ 74.3 µg/mL)

SMILES: COc1ccccc1NC(=O)c1nc2ccccc2nc1N1CCCCC1
- EC50 [5]: > 30000 nM
- EC50 [6]: > 30000 nM
- IC50 [7]: 21000 nM
- IC50 [8]: > 30000 nM

SMILES: NS(=O)(=O)c1cccc(NC(=O)c2cccnc2N2CCCCC2)c1
- EC50 [1]: 22000 nM

SMILES: NS(=O)(=O)c1cccc(NC(=O)c2cc(C(F)(F)F)cnc2N2CCC3(CC2)CC3)c1
- EC50 [1]: 32 nM
- CL free [2]: 250 mL/min/kg
- half-life [3]: 2.8 h
- solubility [4]: 53 µM (≈ 24.1 µg/mL)

SMILES: Cc1cc(C(=O)Nc2cccc(S(N)(=O)=O)c2)c(N2CCCCC2)nc1C
- EC50 [1]: 320 nM
- CL free [2]: 2900 mL/min/kg
- half-life [3]: 0.57 h
- solubility [4]: 11 µM (≈ 4.27 µg/mL)

SMILES: Cc1cnc(N2CCCCC2)c(C(=O)Nc2cccc(S(N)(=O)=O)c2)c1
- EC50 [1]: 14000 nM
- solubility [4]: 14 µM (≈ 5.24 µg/mL)

SMILES: NS(=O)(=O)c1cccc(NC(=O)c2nc3ccccc3nc2N2CCCCC2)c1
- EC50 [1]: 110 nM

SMILES: NS(=O)(=O)c1cccc(NC(=O)c2cc3ccccc3nc2N2CCOCC2)c1
- EC50 [1]: 2000 nM

SMILES: CC(C)(C)c1cc(C(=O)Nc2cccc(S(N)(=O)=O)c2)n(Cc2ccccc2)n1
- EC50 [5]: > 30000 nM
- EC50 [6]: > 30000 nM
- IC50 [7]: 80 nM
- IC50 [8]: > 30000 nM

SMILES: Cc1ccc(C(=O)Nc2cccc(S(N)(=O)=O)c2)c(N2CCCCC2)n1
- EC50 [1]: 860 nM
- CL free [2]: 1100 mL/min/kg
- half-life [3]: 0.55 h
- solubility [4]: 58 µM (≈ 21.7 µg/mL)

SMILES: NS(=O)(=O)c1cccc(NC(=O)c2cc(C(F)(F)F)cnc2N2CCC(F)(F)CC2)c1
- EC50 [1]: 42 nM
- CL free [2]: 100 mL/min/kg
- half-life [3]: 3.3 h
- solubility [4]: 150 µM (≈ 69.7 µg/mL)
- EC50 [9]: > 30000 nM
- EC50 [5]: > 30000 nM
- EC50 [6]: > 30000 nM
- IC50 [10]: > 30000 nM
- Papp [11]: 28 ×10⁻⁶ cm/s
- clearance [12]: 7.1 mL/min/kg
- CL free [13]: 100 mL/min/kg
- Vd [14]: 1.3 L/kg
- Vdu [15]: 19 L/kg
- half-life [16]: 2.2 h
- Tmax [17]: 2.5 h
- bioavailability [18]: 82%
- clearance [19]: 0.96 mL/min/kg
- CL free [20]: 40 mL/min/kg
- Vd [21]: 0.73 L/kg
- Vdu [22]: 30 L/kg
- half-life [23]: 8.8 h
- Tmax [24]: 1.5 h
- bioavailability [25]: 45%
- clearance [26]: 3.15 mL/min/kg
- CL free [27]: 62 mL/min/kg
- Vd [28]: 1.68 L/kg
- Vdu [29]: 33 L/kg
- half-life [30]: 6.6 h
- Tmax [31]: 2.5 h
- bioavailability [32]: 77%
- concentration [33]: 2180 nM
- concentration [34]: 6110 nM
- concentration [35]: 18600 nM
- Cp(f) [36]: 111 nM
- Cp(f) [37]: 312 nM
- Cp(f) [38]: 948 nM
- IC50 [39]: 27000 nM

SMILES: CN1CCN(c2nc3ccccc3cc2C(=O)Nc2cccc(S(N)(=O)=O)c2)CC1
- EC50 [1]: 20000 nM

SMILES: NS(=O)(=O)c1cccc(NC(=O)c2cc(C(F)(F)F)cnc2N2CCCC3(CC3)C2)c1
- EC50 [1]: 34 nM
- CL free [2]: 1800 mL/min/kg
- half-life [3]: 0.72 h
- solubility [4]: 68 µM (≈ 30.9 µg/mL)

SMILES: NS(=O)(=O)c1cccc(NC(=O)c2cc(C(F)(F)F)cnc2N2CCCCCC2)c1
- EC50 [1]: 12 nM
- CL free [2]: 1800 mL/min/kg
- half-life [3]: 0.62 h
- solubility [4]: 120 µM (≈ 53.1 µg/mL)

SMILES: CN1CCN(c2nc3ccccc3nc2C(=O)Nc2cccc(S(N)(=O)=O)c2)CC1
- EC50 [1]: > 30000 nM

SMILES: NS(=O)(=O)c1cccc(NC(=O)c2cc(C(F)(F)F)cnc2N2CCCC2)c1
- EC50 [1]: 2000 nM
- solubility [4]: 160 µM (≈ 66.3 µg/mL)

SMILES: NS(=O)(=O)c1cccc(NC(=O)c2cc(C(F)(F)F)cnc2N2CCCC(F)(F)CC2)c1
- CL free [2]: 600 mL/min/kg
- half-life [3]: 1.1 h
- solubility [4]: 110 µM (≈ 52.6 µg/mL)

SMILES: NS(=O)(=O)c1cccc(NC(=O)c2ccc(C(F)(F)F)nc2N2CCCCC2)c1
- EC50 [1]: 290 nM
- CL free [2]: 1300 mL/min/kg
- half-life [3]: 0.89 h
- solubility [4]: 91 µM (≈ 39 µg/mL)
